Measured values taken from patent US7326721B2 (Hypnion, Inc., priority 2003, dated 2008).
Like-named read-outs stand apart in the source and are kept apart here.

Key:
[1] = tested on: adult male Wistar rats; assay: SCORE-2000 sleep-wakefulness, locomotor activity and body temperature monitoring; format: in vivo, rat
[2] = molecular target: T1, H1 histamine receptor (Bos taurus, UniProt P30546); assay: Histamine H1 competitive binding assay ([3H]pyrilamine); set-up: species or system bovine; details: read-out: Ki H1
T1 construct: the receptors were obtained from bovine cerebellar membrane tissue; from tissue; host or cells: bovine cerebellar membranes
T1 sequence (P30546 whole entry): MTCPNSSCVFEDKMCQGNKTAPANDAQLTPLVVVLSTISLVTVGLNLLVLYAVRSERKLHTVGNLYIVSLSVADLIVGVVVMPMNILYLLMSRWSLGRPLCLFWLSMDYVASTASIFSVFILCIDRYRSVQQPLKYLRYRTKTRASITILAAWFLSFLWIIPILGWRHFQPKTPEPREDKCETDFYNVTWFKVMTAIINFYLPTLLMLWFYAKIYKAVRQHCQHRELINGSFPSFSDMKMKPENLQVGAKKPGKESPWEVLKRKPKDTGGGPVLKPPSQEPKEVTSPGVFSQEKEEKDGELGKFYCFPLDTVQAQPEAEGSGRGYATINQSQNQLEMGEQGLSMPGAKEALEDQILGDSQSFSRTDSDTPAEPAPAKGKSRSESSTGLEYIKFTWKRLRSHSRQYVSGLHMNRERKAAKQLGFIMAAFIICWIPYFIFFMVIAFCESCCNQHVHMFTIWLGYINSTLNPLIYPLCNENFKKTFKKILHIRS

[3] = molecular target: hERG (Homo sapiens, UniProt Q12809)
hERG, sequence (Q12809 whole entry): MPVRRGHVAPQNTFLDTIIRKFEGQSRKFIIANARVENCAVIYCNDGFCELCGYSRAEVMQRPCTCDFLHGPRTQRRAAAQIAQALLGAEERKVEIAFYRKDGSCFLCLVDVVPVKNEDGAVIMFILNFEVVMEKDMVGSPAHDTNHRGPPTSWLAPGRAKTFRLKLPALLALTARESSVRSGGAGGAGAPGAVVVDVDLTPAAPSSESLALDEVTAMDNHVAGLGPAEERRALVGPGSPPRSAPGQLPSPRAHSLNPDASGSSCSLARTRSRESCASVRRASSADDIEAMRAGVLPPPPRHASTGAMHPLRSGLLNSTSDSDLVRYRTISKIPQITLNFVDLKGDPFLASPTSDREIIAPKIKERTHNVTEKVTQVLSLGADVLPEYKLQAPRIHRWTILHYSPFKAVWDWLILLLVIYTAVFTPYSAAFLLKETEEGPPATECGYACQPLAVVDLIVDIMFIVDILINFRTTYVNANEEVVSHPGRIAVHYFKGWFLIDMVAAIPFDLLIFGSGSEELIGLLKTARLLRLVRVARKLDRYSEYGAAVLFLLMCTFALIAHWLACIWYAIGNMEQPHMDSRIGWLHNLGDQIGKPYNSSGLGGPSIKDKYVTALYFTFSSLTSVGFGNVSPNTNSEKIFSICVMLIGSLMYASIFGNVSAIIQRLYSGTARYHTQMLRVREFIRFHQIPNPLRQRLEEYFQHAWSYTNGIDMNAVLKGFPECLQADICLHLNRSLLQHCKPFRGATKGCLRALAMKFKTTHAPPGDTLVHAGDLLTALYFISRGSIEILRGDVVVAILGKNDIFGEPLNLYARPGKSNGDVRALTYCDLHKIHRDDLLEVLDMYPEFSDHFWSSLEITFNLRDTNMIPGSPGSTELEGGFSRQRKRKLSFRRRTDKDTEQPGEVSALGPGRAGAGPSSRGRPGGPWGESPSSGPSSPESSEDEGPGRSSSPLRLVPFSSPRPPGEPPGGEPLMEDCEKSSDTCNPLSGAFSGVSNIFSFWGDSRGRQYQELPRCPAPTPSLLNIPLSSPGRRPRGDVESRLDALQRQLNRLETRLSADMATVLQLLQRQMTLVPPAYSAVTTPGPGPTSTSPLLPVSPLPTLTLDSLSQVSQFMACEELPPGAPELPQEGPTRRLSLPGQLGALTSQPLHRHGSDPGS

[4] = molecular target: T2, M1 muscarinic receptor (Homo sapiens, UniProt P11229); assay: Muscarinic M1 binding assay ([3H]-scopolamine, N-methyl chloride); set-up: purchased PerkinElmer, Inc., Wellesley, Mass; host or cells: CHO cells; details: read-out: Ki M1
T2 sequence (P11229 1-460): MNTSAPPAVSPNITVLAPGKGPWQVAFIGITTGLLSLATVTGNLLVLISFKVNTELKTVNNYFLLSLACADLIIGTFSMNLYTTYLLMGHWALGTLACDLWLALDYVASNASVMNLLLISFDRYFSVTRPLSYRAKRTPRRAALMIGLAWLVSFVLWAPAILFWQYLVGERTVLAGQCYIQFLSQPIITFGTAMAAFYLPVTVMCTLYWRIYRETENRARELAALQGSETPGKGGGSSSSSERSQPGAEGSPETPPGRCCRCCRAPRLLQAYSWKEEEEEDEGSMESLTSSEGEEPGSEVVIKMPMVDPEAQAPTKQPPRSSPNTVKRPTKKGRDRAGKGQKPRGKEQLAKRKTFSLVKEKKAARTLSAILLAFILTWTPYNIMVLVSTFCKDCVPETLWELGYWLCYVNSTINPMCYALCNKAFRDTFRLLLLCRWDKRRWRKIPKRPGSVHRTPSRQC

[5] = molecular target: T3, M2 muscarinic receptor (Homo sapiens, UniProt P08172); assay: Muscarinic M2 binding assay; set-up: purchased PerkinElmer, Inc., Wellesley, Mass; host or cells: CHO cells; details: read-out: Ki M2
T3 sequence (P08172 1-466): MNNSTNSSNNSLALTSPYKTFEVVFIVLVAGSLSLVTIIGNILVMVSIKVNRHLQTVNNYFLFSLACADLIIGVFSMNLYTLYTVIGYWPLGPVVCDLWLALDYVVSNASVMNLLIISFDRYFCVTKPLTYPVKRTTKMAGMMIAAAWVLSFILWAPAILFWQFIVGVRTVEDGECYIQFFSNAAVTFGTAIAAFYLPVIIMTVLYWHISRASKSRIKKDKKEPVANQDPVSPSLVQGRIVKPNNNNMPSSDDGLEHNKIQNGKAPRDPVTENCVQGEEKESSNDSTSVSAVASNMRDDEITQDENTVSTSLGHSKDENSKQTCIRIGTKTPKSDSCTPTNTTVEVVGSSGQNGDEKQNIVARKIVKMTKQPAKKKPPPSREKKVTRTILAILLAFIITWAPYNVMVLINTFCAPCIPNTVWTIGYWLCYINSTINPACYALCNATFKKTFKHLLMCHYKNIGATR

[6] = molecular target: M3 muscarinic receptor (Homo sapiens, UniProt P20309); assay: Muscarinic M3 binding assay; set-up: purchased PerkinElmer, Inc., Wellesley, Mass; host or cells: CHO cells; details: read-out: Ki M3
M3 muscarinic receptor, sequence (P20309 whole entry): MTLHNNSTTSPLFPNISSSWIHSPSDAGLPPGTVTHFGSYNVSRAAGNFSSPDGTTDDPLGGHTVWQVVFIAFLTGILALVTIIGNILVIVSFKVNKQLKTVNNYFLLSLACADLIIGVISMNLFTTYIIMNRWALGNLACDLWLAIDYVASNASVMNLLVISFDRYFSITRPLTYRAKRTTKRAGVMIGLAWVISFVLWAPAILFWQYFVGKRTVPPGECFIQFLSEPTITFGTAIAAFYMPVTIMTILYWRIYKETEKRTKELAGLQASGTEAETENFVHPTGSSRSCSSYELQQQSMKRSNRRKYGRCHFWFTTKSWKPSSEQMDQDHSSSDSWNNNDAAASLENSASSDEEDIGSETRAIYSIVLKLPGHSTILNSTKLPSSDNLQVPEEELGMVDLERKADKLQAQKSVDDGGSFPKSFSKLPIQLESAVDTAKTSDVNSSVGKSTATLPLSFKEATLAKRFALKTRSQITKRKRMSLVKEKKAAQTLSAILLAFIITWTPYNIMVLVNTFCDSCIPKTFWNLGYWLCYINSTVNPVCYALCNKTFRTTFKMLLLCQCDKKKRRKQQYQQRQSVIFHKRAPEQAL

[7] = tested on: male Wistar rats; format: in vivo
Method: The Irwin screen can provide useful information on potential side effects of compounds on general physiological and behavioural functions. The screen was conducted by administering the test compounds orally in 0.25% aqueous methylcellulose using male Wistar rats, a frequently used species in such studies and for which background data are readily available.
The Irwin screen tests for numerous parameters in animals that have been administered the test compound. For example, the screen can include: in-cage effects, e.g., dispersion, respiratory rate, locomotor activity, restlessness, fighting, alertness, apathy, and exophthalmus; in-arena effects, e.g., transfer arousal, spatial locomotion, ptosis, startle, tail elevation, piloerection, touch escape, positional passivity, catalepsy, tighting reflex, visual placing, grip strength, pinna, corneal, pain response, and wire manoeuvre; parameters observed in handling, e.g., cyanosis, cutaneous blood flow, hypothermia, body tone, pupil size, light-pupil response, lacrimation, grooming, red staining, salivation, and provoked biting; general scores e.g., fearfulness, irritability, abnormal gait, abnormal body carriage, tremors, twitches, convulsions, bizarre behaviour, writhing, vocalisation, diarrhoea, number of defaecations, number of urinations, moribund, lethality, and abnormalities detected. Further details can be found in Irwin, S; Comprehensive observational assessment: I a. A systematic, quantitative procedure for assessing the behavioural and physiological state of the mouse.
Irwin screening of the disclosed sleep-inducing agents was performed by Covance (Princeton, N.J.) according to Irwin, above; Covance Standard Operating Procedure (current revision of SOP PHARM 8.10); relevant regulatory authority guidelines ICH (International Committee for Harmonization) Guideline (Topic S7A; CPMP/ICH/539/00) on Safety Pharmacology Studies for human pharmaceuticals (November 2000); and all procedures carried out on live animals were subject to the provisions of United Kingdom Law, in particular the Animals (Scientific Procedures) Act, 1986. which obliges all UK laboratories to maintain a local ethical review process to ensure that all animal use in the establishment is carefully considered and justified; that proper account is taken of all possibilities for reduction, refinement or replacement and that high standards of accommodation and care are achieved.
All test compound formulations were prepared on the day of dosing by Covance Harrogate Dispensary. The test compounds were formulated in 0.25% aqueous methylcellulose at the highest concentration required. Lower doses were obtained by serial dilution of the highest concentration using 0.25% aqueous methylcellulose. Dose levels are expressed in terms of the amount of test compound administered without regard to purity or active content. All formulations were stored at room temperature (nominally 10 to 30° C.) in sealed containers and protected from light.
An adequate number of male Wistar (Crl:WI(Glx/BRL/Han) BR:WH) rats were obtained from Charles River Ltd. (Margate, Kent, United Kingdom). The rats were approximately 5 weeks of age and weighed between 150 and 170 g on arrival. The animals were housed in groups of no more than six in polypropylene cages (33×15×13 cm) or (45×28×20 cm) with solid floors and Grade 10 woodflakes (Datesand Ltd., Cheshire, United Kingdom) as bedding. The cages were cleaned and dried before use. Aspen chew blocks were placed within the cages as a form of environmental enrichment. Routinely, holding rooms were maintained within acceptable limits for temperature and relative humidity (nominally 19 to 25° C. and 40% to 70%, respectively). These rooms were illuminated by fluorescent light for 12 hours out of each 24 hour cycle and designed to receive at least 15 fresh air changes per hour. […]

Structure (SMILES)	LUSB ([1]; dose 1 mg/kg oral at CT-18) [min]	NREM ([1]; dose 1 mg/kg oral at CT-18) [min]	LUSB ([1]; dose 3 mg/kg oral at CT-18) [min]	NREM ([1]; dose 3 mg/kg oral at CT-18) [min]	LUSB ([1]; dose 10 mg/kg oral at CT-18) [min]	NREM ([1]; dose 10 mg/kg oral at CT-18) [min]	LUSB ([1]; dose 30 mg/kg oral at CT-18) [min]	NREM ([1]; dose 30 mg/kg oral at CT-18) [min]	Ki [2] [nM]	hERG at micromolar (% blocking of the hERG channel) ([3]; human, 10 µM, pH 7.4) [% @ 10]	Ki [4] [µM]	Ki [5] [µM]	Ki [6] [µM]	Irwin at mg/kg dose ([7]; 10 mg/kg oral)	Irwin at mg/kg dose ([7]; 30 mg/kg oral)	Irwin at mg/kg dose ([7]; 100 mg/kg oral)	hERG at micromolar (% blocking of the hERG channel) ([3]; concentration not given) [%]
COc1ccc2c(c1)COc1ccc(F)cc1C2=C1CCN(CC(C)(C)C(=O)O)CC1 [Compound 47a]	2.9	5.5	5.5	32.3	16.7	41.1	10	56.9	111	1	> 10	> 10	> 10				
O=C(O)C1(CN2CCC(=C3c4ccc(F)cc4COc4ccccc43)CC2)CC1 [Compound 49b]			10.4	22.5	13.1	47.3	15.9	43.2	61.4	3.1	> 10	> 10	> 10				
CCC(CC)(CN1CCC(=C2c3ccc(F)cc3COc3ccccc32)CC1)C(=O)O [Compound 49c]									29.9	19.7	> 10	> 10	> 10				
COc1ccc2c(c1)COc1ccccc1C2=C1CCN(CC2(C(=O)O)CC2)CC1 [Compound 50b]			6.9	10.7	8.1	24.2	14.3	51.9	69.8	27.1	> 10	> 10	> 10				
O=C(O)C1(CN2CCC(=C3c4ccc(Cl)cc4COc4ccccc43)CC2)CC1 [Compound 51b]			8.4	34.7	8.3	45	128	60.4	72	23	> 10	> 10	> 10				
CC(C)(CCN1CCC(=C2c3ccc(F)cc3COc3ccccc32)CC1)C(=O)O [Compound 61a]			3.1	13.9	9.7	24	10.1	45.8	182	12.6	> 10	> 10	> 10				
O=C(O)C1(CCN2CCC(=C3c4ccc(F)cc4COc4ccccc43)CC2)CC1 [Compound 61b]			3.6	11.3	14.6	34.8	9.7	57.4	12.2	85.9	0.569	3.09	> 10				
COc1ccc2c(c1)COc1ccccc1C2=C1CCN(CCC(C)(C)C(=O)O)CC1 [Compound 62a]					7.4	23.2	9.1	25.2	128	13.6	> 10	> 10	> 10				
COc1ccc2c(c1)C(=C1CCN(CCC3(C(=O)O)CC3)CC1)c1ccccc1CO2 [Compound 67b]					4.6	12.6	10	21.1	62.5		> 10	> 10	> 10				
O=C(O)C1(CCN2CCC(=C3c4ccccc4COc4ccccc43)CC2)CC1 [Compound 70b]					8.3									clean	clean	some side effects	50.2
